Laboratory results published in patent US12714721B2, “Methods of treatment of a cytokine storm” (Loma Linda University Health, priority 2020, dated 2026).

How the values were obtained:
kidney = assay: Renal histology (CD31 and α-SMA staining, PAS staining, tubular injury score); type: in vivo, mouse; conditions: for PECAM (CD-31) staining: renal sections (FIGS. 4A-4E); for α-SMA staining: renal sections (FIGS. 4F-4J)
Description: (§1) Experimental Design for IGF-1 and BTP-2 studies—The animal experiments involved B6 mice between 5-8 weeks of age. Most experiments involved five groups of animals: (1) healthy, (2) LPS untreated (LPS-No Tx), (3) IGF-I in vivo gene therapy one day before LPS injection (LPS+IGF-1), (4) BTP-2 16 mg/kg i.p. at the start of the study and the (5) combined therapy with IGF-I and BTP-2 (LPS-IGF-1+BTP-2). For the survival experiment, a lethal dose of LPS (25 mg/kg) was used and all of the untreated animals died by 72 hours. In the other experiments, a sublethal dose of LPS (20 mg/kg) was used.
(§2) LPS induced sepsis and subsequent AKI—Female C57BL/6 mice received a sublethal or lethal dose of LPS from E. coli (0127: B8 strain, Sigma Aldrich, St. Louis, MO, USA) in a concentration of 20 or 25 mg/kg body weight administrated in sterile PBS by intraperitoneal injection.
(§3) Treatment—In a preventive therapeutic strategy, some of the mice received an intramuscular injection of Lenti-IGF-1 24 hours before LPS injection; whereas, the calcium signaling blocker BTP-2 (16 mg/kg, Cayman Chemical) was administrated 1 hour before LPS injection. Some of the animals received a combination of Lenti-IGF-1 and BTP-2. Control group mice were injected with an equal volume of PBS.
Renal Histology—After sacrificing the mice, one part of the kidney was immediately cut, fixed in a 10% neutral buffered formalin solution, embedded in paraffin, and used for histopathological examination. 10-micrometer-thick sections were cut, deparaffinized, and hydrated. All renal serial sections were incubated at 4° C. overnight with one of two antibodies; rabbit polyclonal antibody against PECAM (CD31) (Santa Cruz, MA) or rabbit polyclonal antibody against α-SMA (Abcam, MA). After washing with TBST, biotinylated goat anti-rabbit IgG (1:200, Vector Labs, Burlingame, CA) were applied to the sections for 30 min at room temperature. Sections then were incubated with Streptavidin-HRP (Vector Labs, Burlingame, CA) for 30 min at room temperature. Diaminobenzidine (DAB; Vector Labs, Burlingame, CA) was used as the chromogen and hematoxylin as the counterstain. One part of the kidney was stained with periodic acid Schiff (PAS) stain. The PAS stained sections were examined for renal morphology in an automated fashion by quantification of a glycogen specific color in the kidney tissue using ImageJ (National Institutes of Health, Bethesda, MD, USA). A minimum of 10 fields for each kidney slide were examined and scored for pathological injury. […] The average histological score for each sample was calculated. The images were captured with an Olympus BX51 microscope, 40× magnification. (Olympus, Center Valley, PA).

LPS-induced AKI mice = assay: Survival test with a lethal dose of LPS (25 mg/kg body weight); type: in vivo, mouse; conditions: LPS 25 mg/kg i.p.; for overall survival rate: end of the experiment (144 h) (FIG. 1D); for mortality: pretreatment (FIG. 1D)
Description: Different components of the treatment regimen were tested, individually and in combination, for their effect on prolonging survival or affecting mortality. A survival test was performed with a lethal dose of LPS (25 mg/kg body weight). As LPS causes AKI, a mouse model was utilized where AKI was induced by parenteral injection of LPS. Animals were treated with IGF-1 and Vitamin C, individually and in combination to evaluate their effect on survival (FIG. 1C). Kaplan Meier survival analysis was conducted between LPS induced systemic-sepsis animals treated with or without IGF-1, Vitamin C or combination therapy measured over the 96 hour-study period. […] No mortality was observed among healthy mice.
Different components of the treatment regimen were tested, individually and in combination, for their effect on prolonging survival or affecting mortality. A survival test was performed with a lethal dose of LPS (25 mg/kg body weight). Animals were treated with all components individually and in combination to evaluate their effect on survival. As LPS causes AKI, a mouse model was utilized where AKI was induced by parenteral injection of LPS. Pretreatment with IGF-1 monotherapy, BTP-2 monotherapy, and IGF-1+BTP-2 combination therapy was evaluated for effect in the mouse model to prevent the animals from succumbing to death due to organ failure in AKI. Mice (7 per groups) were i.p. injected with a lethal dose of LPS (25 mg/kg body weight). A group of mice received an i.p. injection of BTP-2 (16 mg/kg) one hour before LPS injection, and another group of mice received i.m. injection of Lenti-IGF1, 24 hours before LPS injection. A separate group of mice received a combination of IGF-1+BTP-2 as pretreatment. Mice were monitored every 6 hours. […] The mortality of LPS-injected mice that received an IGF-1 (labeled as LPS+IGF-1) pretreatment was 60% within 36 hours, and 88% at the end of the experiment (144 h). Mortality in LPS-injected mice that received BTP-2 (labeled as LPS+BTP-2) pretreatment was 0% within 36 hours, 30% within 48 hours and 72% at 144 hour-time point. However, the mortality in LPS-injected mice that received an IGF-1 and BTP-2 (labeled as LPS+IGF-1+BTP-2) pretreatment was comparatively low, which reached only 15% within 48 hours, and at the end of the 144 hour-time point reached only up to 43% (compared to LPS-No Tx). […] Meanwhile, no mortality was observed among mice treated with PBS, i.e., healthy group.
as §1, §2, §3

## IGF-I: Insulin-like Growth Factor, delivered by a lentiviral vector engineered to express IGF-I injected into skeletal muscle
kidney
  PECAM (CD-31) staining: improved
  α-SMA staining: improved
LPS-induced AKI mice
  overall survival rate: 12.5%
LPS-induced AKI mice; end of the experiment (144 h)
  mortality: 88%
LPS-induced AKI mice; within 36 hours
  mortality: 60%

## Cc1nnsc1C(=O)Nc1ccc(-n2nc(C(F)(F)F)cc2C(F)(F)F)cc1 [BTP-2, 3,5-bis(trifluoromethyl)pyrazole derivative]
kidney
  PECAM (CD-31) staining: improved
  α-SMA staining: improved
LPS-induced AKI mice
  overall survival rate: 28%
LPS-induced AKI mice; end of the experiment (144 h)
  mortality: 72%
LPS-induced AKI mice; within 36 hours
  mortality: 0%
LPS-induced AKI mice; within 48 hours
  mortality: 30%
